For six compounds, EC50 results are on record in patent publication US10736883B2, “Triazole furan compounds as agonists of the APJ receptor” (AMGEN INC., priority 2016, dated 2020).

SMILES strings stand for the structures.

APJ receptor, sequence (P35414 whole entry): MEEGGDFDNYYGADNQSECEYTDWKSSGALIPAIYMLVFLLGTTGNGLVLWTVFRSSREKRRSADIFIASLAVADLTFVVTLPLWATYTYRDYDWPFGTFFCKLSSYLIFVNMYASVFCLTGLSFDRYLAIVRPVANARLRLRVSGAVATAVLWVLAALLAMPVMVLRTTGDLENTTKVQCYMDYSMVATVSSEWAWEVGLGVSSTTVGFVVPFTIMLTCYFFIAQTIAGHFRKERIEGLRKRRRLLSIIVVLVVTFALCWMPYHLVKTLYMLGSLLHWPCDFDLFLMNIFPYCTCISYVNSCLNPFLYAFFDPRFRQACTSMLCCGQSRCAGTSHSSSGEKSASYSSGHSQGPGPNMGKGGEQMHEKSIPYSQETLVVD

This assay concerns the target APJ receptor (Homo sapiens (Human), UniProt P35414). Put plainly: [35S]GTPγS binding assay on membranes from CHO cells stably expressing human APJ receptor. In kind it is biochemical. The following applies: membranes of CHO cells stably expressing human APJ receptor, means of several independent experiments, read-out: Activity hAPJ SPA EC50 IP. An outline of the steps: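 EC50 values were obtained by non-linear regression of [35S]GTPγS (0.2 nM) binding after 90 min at RT, with nonspecific binding defined by 100 μM GTPγS. Reactions used human APJ–expressing CHO cell membranes on WGA PS beads in HEPES pH 7.5 buffer with 5 mM MgCl2, 200 mM NaCl, 3 μM GDP and 0.1% BSA.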
For orientation: Binding of GTPγS marks nucleotide exchange on a G protein.
As to `COc1cccc(OC)c1-n1c(NS(=O)(=O)[C@H](C)[C@H](O)c2cscn2)nnc1-c1ccc(C)o1` (single isomer, unassigned) [Example 309.0, (1S,2S)—N-(4-(2,6-Dimethoxyphenyl)-5-(5-methyl-2-furanyl)-4H-1,2,4-triazol-3-yl)-1-hydroxy-1-(1,3-thiazol-4-yl)-2-propanesulfonamide or (1R,2R)—N-(4-(2,6-dimethoxyphenyl)-5-(5-methyl-2-furanyl)-4H-1,2,4-triazol-3-yl)-1-hydroxy-1-(1,3-thiazol-4-yl)-2-propanesulfonamide], the EC50 worked out at 61 nM.

For `COc1cccc(OC)c1-n1c(NS(=O)(=O)[C@@H](C)C2(O)COC2)nnc1-c1ccc(C)o1` (single isomer, unassigned) [Example 311.0, (1S)—N-(4-(2,6-Dimethoxyphenyl)-5-(5-methyl-2-furanyl)-4H-1,2,4-triazol-3-yl)-1-(3-hydroxy-3-oxetanyl)ethanesulfonamide or (1R)—N-(4-(2,6-dimethoxyphenyl)-5-(5-methyl-2-furanyl)-4H-1,2,4-triazol-3-yl)-1-(3-hydroxy-3-oxetanyl)ethanesulfonamide], the EC50 is 190 nM.

As to `COc1cccc(OC)c1-n1c(NS(=O)(=O)[C@H]2C[C@@H](O)CN(c3cncc(C#N)n3)C2)nnc1-c1ccc(C)o1` (single isomer, unassigned) [Example 321.0, (3S,5R)-1-(6-Cyano-2-pyrazinyl)-N-(4-(2,6-dimethoxyphenyl)-5-(5-methyl-2-furanyl)-4H-1,2,4-triazol-3-yl)-5-hydroxy-3-piperidinesulfonamide or (3R,5S)-1-(6-cyano-2-pyrazinyl)-N-(4-(2,6-dimethoxyphenyl)-5-(5-methyl-2-furanyl)-4H-1,2,4-triazol-3-yl)-5-hydroxy-3-piperidinesulfonamide], the EC50 was found to be 0.18 nM.

`COc1cccc(OC)c1-n1c(NS(=O)(=O)[C@H]2C[C@@H](O)CN(c3ncc(F)cn3)C2)nnc1-c1ccc(C)o1` (single isomer, unassigned) [Example 323.0, (3S,5R)—N-(4-(2,6-Dimethoxyphenyl)-5-(5-methyl-2-furanyl)-4H-1,2,4-triazol-3-yl)-1-(5-fluoro-2-pyrimidinyl)-5-hydroxy-3-piperidinesulfonamide or (3R,5S)—N-(4-(2,6-dimethoxyphenyl)-5-(5-methyl-2-furanyl)-4H-1,2,4-triazol-3-yl)-1-(5-fluoro-2-pyrimidinyl)-5-hydroxy-3-piperidinesulfonamide]: the EC50 amounted to 0.2 nM.

Regarding `COc1cccc(OC)c1-n1c(NS(=O)(=O)[C@H]2C[C@@H](O)CN(c3cncc(C#N)c3)C2)nnc1-c1ccc(C)o1` (single isomer, unassigned) [Example 325.0, (3S,5R)-1-(5-Cyano-3-pyridinyl)-N-(4-(2,6-dimethoxyphenyl)-5-(5-methyl-2-furanyl)-4H-1,2,4-triazol-3-yl)-5-hydroxy-3-piperidinesulfonamide or (3R,5S)-1-(5-cyano-3-pyridinyl)-N-(4-(2,6-dimethoxyphenyl)-5-(5-methyl-2-furanyl)-4H-1,2,4-triazol-3-yl)-5-hydroxy-3-piperidinesulfonamide], the EC50 is 0.23 nM.

Turning to `COc1ccnc(N2C[C@H](O)C[C@H](S(=O)(=O)Nc3nnc(-c4ccc(C)o4)n3-c3c(OC)cccc3OC)C2)n1` (single isomer, unassigned) [Example 327.0, (3S,5R)—N-(4-(2,6-Dimethoxyphenyl)-5-(5-methyl-2-furanyl)-4H-1,2,4-triazol-3-yl)-5-hydroxy-1-(4-methoxy-2-pyrimidinyl)-3-piperidinesulfonamide or (3R,5S)—N-(4-(2,6-dimethoxyphenyl)-5-(5-methyl-2-furanyl)-4H-1,2,4-triazol-3-yl)-5-hydroxy-1-(4-methoxy-2-pyrimidinyl)-3-piperidinesulfonamide], the EC50 stood at 0.25 nM.

By EC50 is commonly meant the concentration that produces a half-maximal response.
